Assay [1] concerns Myo-X. The assay is described as follows: Myo-X protein expression by Western blotting in normal human melanocytes. Format: cell-based. The note with it: EM (F39), 12 h. The protocol: Western blot analysis: EMc in a confluent T225 flask were trypsinised and seeded into T25 flask with full medium and allowed to attach overnight. 24 h before treatment the medium was replaced with starved medium for 24 h. Cells were washed 3-times with sterile PBS, and incubated in starved medium alone, or L-18 (0.001%), L-19 (1%), L-20 (0.5%), L-21 (10 μg/ml), L-22 (1%) and L-23 (0.05 μg/ml) for 12 and 72 h. Controls included IBMX (100 μM) and niacinamide (10 μM).
40 μg of total protein from each cell extract was electrophoresed in reducing SDS-8%-PAGE and blotted on PVDF membranes (Millipore Corporation, Bedford, Mass.). […]
After extensive washes the blots were incubated with horseradish peroxidise conjugated secondary antibodies for 2 h. […] The chemiluminescent signal was detected by exposing the blot strips to Kodak XRA X-ray film (Kodak, UK) at various exposure times, followed by development in developing solution (Kodak, UK) until bands appeared, rinsed in tap water, fixed in the fixer (Kodak, UK) until the film turned blue, then rinsed with tap water and allowed to dry. […]
(A) Cell extracts were analyzed by Western blotting using anti-Myo-X and anti-β-actin as a loading control.
(B) Densitometric analysis of Myo-X and actin band intensities expressed as percentage change compared to unstimulated controls. […]
Background: Immunoblotting shows a protein as a band on a membrane.

The test system of assay [2] is tyrosinase. The assay is described as follows: DOPA oxidase detection for tyrosinase activity in FM55 melanoma. Format: cell-based, human. The note with it: 72 h; for Changes in tyrosinase activity, FM55 % change: same doses as E5, vs basal. As to the method:
The cells were prepared for SDS-PAGE and transblotted onto PVDF membranes. 70 μg of un-reduced protein extract without boiling was pipetted into the appropriate wells of 8% SDS-PAGE gels. […] The L-DOPA reaction was stopped by washing the membrane in distilled water and the membrane was scanned. […] In addition IBMX and NH4Cl (positive melanocytic modulators) and niacinamide (negative modulator) were used as controls. […] Controls: Melanocytic modulators: IBMX (100 μM), NH4Cl (100 μM), and niacinamide (10 μM.). (A) Protein extracts were electroblotted and membranes stained with L-DOPA for the estimation of tyrosinase activity. (B) Densitometric scanning of band intensities and values were expressed as the fold increase compared to unstimulated control levels. Means are ±SEM of 3 independent experiments with *P<0.05, **P<0.01, ***P<0.001.

The test system of assay [3] is Normal human epidermal melanocytes (F52; p5). The experiment in a line: Melanin assay (melanogenesis) in normal pigmented human melanocytes. Format: cell-based. The note with it: 72 h; for Changes in melanin levels, F52 EM % change: L-18 0.001%, L-19 1%, L-20 0.5%, L-21 10 μg/ml, L-22 1%, L-23 0.05 μg/ml, IBMX 100 μM, NH4Cl 100 μM, niacinamide 10 μM, vs basal; for Melanin content, F52 EM (pg/cell): same doses as E1, basal 35.63. As to the method: Cells were then washed 3-times with sterile PBS and supplemented with 350 μl of either fresh serum-free RPMI medium (melanoma cells) or starved serum-free and BPE-free melanocyte medium (EM) and incubated at 37° C. and 5% CO2 for 24 h. Cells were then washed with sterile PBS 3-times and incubated with IBMX 1×10^-4 M at 37° C. and 5% CO2 for 12, 24, and 72 h. Cells were then gently washed 3-times with sterile PBS and fixed in ice-cold methanol for 10 minutes at -20° C. Slides were stored at -20° C. until immunocytochemistry was performed. […] The melanin standards were pipetted into a 96 well plate to produce a calibration curve for the assessment of melanin content in the test samples. 400 μl of 1 M NaOH was added to each cell pellet and dissolved on a heat block (100° C.) for 15 minutes. The pellets were vortexed vigorously and the solubilized pellet was pipetted into the same 96-well plate. The optical densities of the sample were read at […] on a DYNEX REVELATION 4.02 program. Melanin content of each test sample was read from the calibration curve. […] In addition IBMX and NH4Cl (positive melanocytic modulators) and niacinamide (negative modulator) were used as controls. Visible change was not particularly evident in normal melanocyte due to their already high basal melanin levels (FIG. 1). By contrast, visible change was evident in melanoma cells basal melanin levels were low (FIG. 2). […] Normal human epidermal melanocytes (Female-52; p5) were treated for 72 h with L-18 (0.001%), L-19 (1%), L-20 (0.5%), L-21 (10 μg/ml), L-22 (1%) and L-23 (0.05 μg/ml). Controls: Melanocytic modulators: IBMX (100 μM), NH4Cl (100 μM), and niacinamide (10 μM). (A) Melanin content was determined spectro-photometrically (475 nm) after sodium hydroxide solubilise (B) Visible change was not particularly evident in these cells due to their already high basal melanin levels. Results were expressed as change in melanin content (pg/cell) compared to unstimulated control levels. Means are ±SEM of 3 independent experiments with *P<0.05, **P<0.01, ***P<0.001. NS-Not Significant

SMILES strings stand for the structures.

For the compound `CC(C)Cn1c(=O)n(C)c(=O)c2[nH]cnc21` [IBMX], the “increase in Myo-10 expression, fold versus untreated controls” value in assay [1] (IBMX 100 μM) was 3 fold. For the same compound, the “Changes in tyrosinase activity, FM55 % change” value in assay [2] is “+141.72%”. In assay [2] (FM55 melanoma cells, doses as E5), the “effect on tyrosinase (dopa oxidase) activity compared with basal levels” value is “dramatic increase in dopa oxidase activity of tyrosinase”. Further, in assay [3], the “Changes in melanin levels, F52 EM % change” value is reported as “+74.57%” and the “Melanin content, F52 EM (pg/cell)” value is on record as “(62.2) pg/cell”.

Regarding `NC(=O)c1cccnc1` [niacinamide], the “Myo-X expression reduced by” value in assay [1] (niacinamide 10 μM) worked out at 60%. For the same compound, the “Changes in tyrosinase activity, FM55 % change” value in assay [2] is on record as −3.31%. For the same compound, in assay [3], the “Changes in melanin levels, F52 EM % change” value is −4.01% and the “Melanin content, F52 EM (pg/cell)” value is “(34.2) pg/cell”.

The values above are taken from US9668960B2, “Methods useful in studying or modulating skin or hair pigmentation, plant extracts for use in compositions and cosmetic care method” (L V M H RECHERCHE, priority 2008, dated 2017).
